Test results from US20060116390A1, “Hepatitis c virus inhibitors” (priority 2003, published 2006).
pIC50: −log10 of the molar value. Where two headings read alike, the source gives them in different places.

Test system: HCV proteins in Rep5.1 cells (replicon cell line)
Assay: Inhibitory activity of HCV: cell-based ELISA in replicon cell line Rep5.1 (decrease of HCV proteins)
Set-up: species or system hepatitis C virus
Conditions: Hepatitis C virus, 72 h
Description: In order to, screen and evaluate the anti-HCV therapeutic agents in cell level, the following experiments are carried out using a replicon cell line, Rep5.1 [Lohmann, et al., Replication of subgenomic hepatitis C virus RNAs in a hepatoma cell line. Science 285:110-113 (1999)].
Rep5.1 cells, the replicon cell line, are cultured in DMEM-10 containing 500 μg/ml of G418. The Rep5.1 cells in log phase are suspended by trypsin treatment, and 5000 cells are distributed to each well of a 96-well plate. After 4 hours when the cells are attached to the plate, the serially diluted drug is added to each well. After 48 hours, a part of the treated cells are observed by microscope, and MTT assay is carried out to evaluate the drug toxicity. The cytotoxicity is estimated in percentage based on the control containing no drug. After 72 hours, the remaining cells are fixed by methanol/acetone (50/50, v/v), and the decrease of HCV proteins is measured by using HCV antibody. The extent of decrease is estimated in percentage based on the control containing no drug, and the concentration of drug at which 50% of proteins is decreased is determined to be IC50. The compounds showing activity via this procedure are validated by Western blotting. In order to find out whether the decrease of HCV protein is related to the decrease of replicon RNA, Rep5.1 cell is treated with some selected drugs for 72 hours, RNA is purified, dot blotted, and hybridized with isotope labelled nucleic acid to determine the amounts of actin mRNA and replicon RNA, and finally the amount of RNA is compared.
Plasma samples from 300 persons positive to the hepatitis C antibody test were screened by antibody diagnosis kit produced by LG life Sciences Ltd. (LG HCD3.0 TMB) to select 40 plasma samples having high titer. Replicon cell line and Huh-7 cell line each were cultured in a 96-well cell culture plate, fixed by methanol/acetone (1:1) mixture, and blocked by 3% skimmed milk. The 40 plasma sanples selected above were 100-fold diluted and aided thereto, and the bound antibodies were probed by anti-Human goat antibody (Sigma) to which Horse Radish Peroxidase is attached. As a result, 12 plasma samples having low specificity to Huh-7 cell line, but high specificity to replicon cell line were obtained. These plasma samples were used in the following cell-based ELISA.
Rep5.1 cells were cultured in DMEM-10 containing 500 μg/ml of G418. The Rep5.1 cells in log phase were suspended by trypsin treatment, and 5000 cells were distributed to each well of a 96-well pate. After 4 hours for which the cells were attached to the plate, the serially diluted drug was added to each well. After 72 hours, the cells were fixed by methanol/acetone (50/50, v/v), and the decrease of HCV proteins was measured by using HCV antibody obtained as above. The extent of decrease was estimated in percentage based on the control containing no drug, and the concentration of drug at which 50% of proteins was decreased was determined to be IC50.

[1] = Rep5.1 cells, 72 hours with drug, concentration at which 50% of HCV proteins was decreased, Table 2, read-out: IC50
[2] = Rep5.1 cells, 72 hours with drug, decrease of HCV proteins measured by HCV antibody, Table 1, read-out: Level (IC50 values classified)

SMILES	pIC50 [1]	pIC50 [2]	pIC50	pIC50 (read-out: Level (IC50 values classified))
CC1=C(C(=O)OCCCc2ccccc2)CNC(=S)N1 [Compound 14, 6-methyl-2-thioxo-1,2,3,4-tetrahydro-pyrimidine-5-carboxylic acid 3-phenyl-propyl ester]	6.70	> 6.00	–	–
CC1=C(C(=O)OCc2cc(Cl)cc(Cl)c2)C(COS(C)(=O)=O)NC(=S)N1 (centres unmarked) [50″, 4-methanesulfonyloxymethyl-6-methyl-2-thioxo-1,2,3,4-tetrahydro-pyrimidine-5-carboxylic acid 3,5-dichloro-benzyl ester]	4.17	< 4.70	–	–
CCN(CCOC(=O)C1=C(C)NC(=S)NC1)c1cccc(C)c1 [Compound 59, 6-methyl-2-thioxo-1,2,3,4-tetrahydro-pyrimidine-5-carboxylic acid 2-(ethyl-m-tolyl-amino)-ethyl ester]	5.52	5.00 to 6.00	–	–
CC1=C(C(=O)OCc2cccc(C)c2C)CNC(=S)N1 [Compound 156, 6-methyl-2-thioxo-1,2,3,4-tetrahydro-pyrimidine-5-carboxylic acid 2,3-dimethyl-benzyl ester]	6.30	> 6.00	–	–
CSc1ccc(CCOC(=O)C2=C(C)NC(=S)NC2CO)cc1 (centres unmarked) [45″, 4-hydroxymethyl-6-methyl-2-thioxo-1,2,3,4-tetrahydro-pyrimidine-5-carboxylic acid 2-(4-methylsulfanyl-phenyl)-ethyl ester]	5.57	5.00 to 6.00	–	–
CC1=C(C(=O)OCCc2ccsc2)CNC(=S)N1 [Compound 208, 6-methyl-2-thioxo-1,2,3,4-tetrahydro-pyrimidine-5-carboxylic acid 2-thiophen-3-yl-ethyl ester]	> 6.40	> 6.00	–	–
CCc1ccc(CCCOC(=O)C2=C(C)NC(=S)NC2CO)o1 (centres unmarked) [19″, 4-hydroxymethyl-6-methyl-2-thioxo-1,2,3,4-tetrahydro-pyrimidine-5-carboxylic acid 3-(5-ethyl-furan-2-yl)-propyl ester]	5.85	5.00 to 6.00	–	–
COc1cc(COC(=O)C2=C(C)NC(=S)NC2)ccc1OCc1ccccc1 [Compound 58, 6-methyl-2-thioxo-1,2,3,4-tetrahydro-pyrimidine-5-carboxylic acid 4-benzyloxy-3-methoxy-benzyl ester]	> 6.30	> 6.00	–	–
CC1=C(C(=O)OCCCc2cccs2)C(CO)NC(=S)N1 (centres unmarked) [4″, 4-hydroxymethyl-6-methyl-2-thioxo-1,2,3,4-tetrahydro-pyrimidine-5-carboxylic acid 3-thiophen-2-yl-propyl ester]	5.60	5.00 to 6.00	–	–
CCn1c2ccccc2c2cc(COC(=O)C3=C(C)NC(=S)NC3)ccc21 [Compound 147, 6-methyl-2-thioxo-1,2,3,4-tetrahydro-pyrimidine-5-carboxylic acid 9-ethyl-9H-carbazol-3-ylmethyl ester]	> 6.40	> 6.00	–	–
CC1=C(C(=O)OCCc2ccc(C)s2)CNC(=S)N1 [Compound 258, 6-methyl-2-thioxo-1,2,3,4-tetrahydro-pyrimidine-5-carboxylic acid 2-(5-methyl-thiophen-2-yl)-ethyl ester]	> 6.40	> 6.00	–	–
CCCCCCOC(=O)C1=C(C)NC(=S)NC1 [Compound 30, 6-methyl-2-thioxo-1,2,3,4-tetrahydro-pyrimidine-5-carboxylic acid hexyl ester]	7.00	> 6.00	–	–
COc1ccc(COC(=O)C2=C(C)NC(=S)NC2)cc1 [Compound 8, 6-methyl-2-thioxo-1,2,3,4-tetrahydro-pyrimidine-5-carboxylic acid 4-methoxy-benzyl ester]	5.52	5.00 to 6.00	–	–
CC1=C(C(=O)OCCc2cccc(C)c2)CNC(=S)N1 [Compound 172, 6-methyl-2-thioxo-1,2,3,4-tetrahydro-pyrimidine-5-carboxylic acid 2-m-tolyl-ethyl ester]	> 6.40	> 6.00	–	–
CC1=C(C(=O)OCc2cc(C)cc(C)c2)CNC(=S)N1 [Compound 82, 6-methyl-2-thioxo-1,2,3,4-tetrahydro-pyrimidine-5-carboxylic acid 3,5-dimethyl-benzyl ester]	6.52	> 6.00	–	–
CCCN(CC)c1ccc(CCOC(=O)C2=C(C)NC(=S)NC2CO)cc1[N+](=O)[O-] (centres unmarked) [92″, 4-Hydroxymethyl-6-methyl-2-thioxo-1,2,3,4-tetrahydro-pyrimidine-5-carboxylic acid 2-[4-(ethyl-propylamino)-3-nitro-phenyl]-ethyl ester]	6.40	> 6.00	–	–
CC1=C(C(=O)OCCCc2ccc(OCc3ccccc3)cc2)CNC(=S)N1 [Compound 108, 6-methyl-2-thioxo-1,2,3,4-tetrahydro-pyrimidine-5-carboxylic acid 3-(4-benzyloxy-phenyl)-propyl ester]	> 6.40	> 6.00	–	–
CC1=C(C(=O)OCCc2cccc(Cl)c2)C(COC(=O)OCC2COC(=O)O2)NC(=S)N1 (centres unmarked) [88″, 6-methyl-4-(2-oxo-[1,3]dioxolan-4-ylmethoxycarbonyloxymethyl)-2-thioxo-1,2,3,4-tetrahydro-pyrimidine-5-carboxylic acid 2-(3-chloro-phenyl)-ethyl ester]	6.05	> 6.00	–	–
CC1=C(C(=O)OCc2ccc([S+](C)[O-])cc2)CNC(=S)N1 (centres unmarked) [Compound 52, 6-methyl-2-thioxo-1,2,3,4-tetrahydro-pyrimidine-5-carboxylic acid 4-methylsulfinyl-benzyl ester]	6.15	> 6.00	–	–
CC1=C(C(=O)OCC2=CCC3CC2C3(C)C)CNC(=S)N1 (centres unmarked) [Compound 97, 6-methyl-2-thioxo-1,2,3,4-tetrahydro-pyrimidine-5-carboxylic acid 6,6-dimethyl-bicyclo[3.1.1]hept-2-en-2-ylmethyl ester]	–	–	> 6.40	> 6.00
CC1=C(C(=O)OC2Cc3ccccc3C2)CNC(=S)N1 [Compound 124, 6-methyl-2-thioxo-1,2,3,4-tetrahydro-pyrimidine-5-carboxylic acid indan-2-yl ester]	6.10	> 6.00	–	–
CC1=C(C(=O)OCCc2cccc(Cl)c2)CNC(=S)N1 [Compound 117, 6-methyl-2-thioxo-1,2,3,4-tetrahydro-pyrimidine-5-carboxylic acid 2-(3-chloro-phenyl)-ethyl ester]	6.40	> 6.00	–	–
C=CCN(CC)c1ccc(CCOC(=O)C2=C(C)NC(=S)NC2CO)cc1[N+](=O)[O-] (centres unmarked) [97″, 4-Hydroxymethyl-6-methyl-2-thioxo-1,2,3,4-tetrahydro-pyrimidine-5-carboxylic acid 2-[4-(allyl-ethyl-amino)-3-nitro-phenyl]-ethyl ester]	6.22	> 6.00	–	–
CC1=C(C(=O)OCc2cc3c(cc2[N+](=O)[O-])OCO3)CNC(=S)N1 [Compound 140, 6-methyl-2-thioxo-1,2,3,4-tetrahydro-pyrimidine-5-carboxylic acid 6-nitro-benzo[1,3]dioxol-5-ylmethyl ester]	4.89	4.70 to 5.00	–	–
CC1=C(C(=O)OCCc2ccccc2[N+](=O)[O-])C(CF)NC(=S)N1 (centres unmarked) [77′, 4-fluoromethyl-6-methyl-2-thioxo-1,2,3,4-tetrahydro-pyrimidine-5-carboxylic acid 2-(2-nitro-phenyl)-ethyl ester]	4.41	< 4.70	–	–
CC1=C(C(=O)OCc2ccc(OCc3ccccc3)cc2)CNC(=S)N1 [Compound 49, 6-methyl-2-thioxo-1,2,3,4-tetrahydro-pyrimidine-5-carboxylic acid 4-benzyloxy-benzyl ester]	> 6.30	> 6.00	–	–
CC1=C(C(=O)OCc2ccc(C)cc2C)CNC(=S)N1 [Compound 122, 6-methyl-2-thioxo-1,2,3,4-tetrahydro-pyrimidine-5-carboxylic acid 2,4-dimethyl-benzyl ester]	6.10	> 6.00	–	–
CC1=C(C(=O)OCc2cc([N+](=O)[O-])ccc2Cl)C(CF)NC(=S)N1 (centres unmarked) [83′, 4-fluoromethyl-6-methyl-2-thioxo-1,2,3,4-tetrahydro-pyrimidine-5-carboxylic acid 2-chloro-5-nitro-benzyl ester]	5.24	5.00 to 6.00	–	–
